This is an account of results in patent publication US20230073777A1, “CYCLIC-AMP RESPONSE ELEMENT BINDING PROTEIN (CBP) AND/OR ADENOVIRAL E1A BINDING PROTEIN OF 300 KDA (P300) DEGRADATION COMPOUNDS AND METHODS OF USE” (CULLGEN (SHANGHAI), INC., priority 2019, published 2023).

Structures are written as SMILES. Entries after “also recorded” stand apart in the source; their conditions may differ.

In one assay the test system is SK-BR-3. Description: Cell viability assay, SK-BR-3. It is filed as cell-based. The conditions noted are these: Homo sapiens, SK-BR-3, breast carcinoma. Here is the method:
(§1) Cells were seeded at a density of 5000 cells per well in 96-well assay plates and treated with test compounds following a 12-point 3-fold serial dilution. Three days later, cell viability was determined using the CellTiter-Glo assay kit according to the manufacturer's instructions. The dose-response curves were determined and IC50 values were calculated using the GraphPad Prism software following a nonlinear regression (least squares fit) method.
(§2) The IC50 value of each compound was determined as described in FIG. 4 and calculated using the GraphPad Prism 5.0 software.

In the next assay the test system is WSU-DLCL2. Description: Cell viability assay, WSU-DLCL2. It is filed as cell-based. The conditions noted are these: Homo sapiens, WSUDLCL2, WSU-DLCL2, Diffuse large B-cell lymphoma. On the procedure: as §1, §2
The next assay relates to MV4; 11. Description: Cell viability assay, MV4; 11. The conditions noted are these: Homo sapiens, 11, Acute monocytic leukemia. It is filed as cell-based. On the procedure: as §1, §2
Another assay relates to MM.1R. Description: Cell viability assay, MM.1R. The conditions noted are these: Multiple Myeloma. It counts as cell-based. On the procedure: as §1, §2
The next assay has as its system HL-60. Kind of assay: Cell viability assay, HL-60. It counts as cell-based. The conditions noted are these: Homo sapiens, HL-60, Acute myeloid leukemia. Here is the method:
as §1, §2

A further assay concerns P300/CBP. Kind of assay: Immunoblotting of P300/CBP protein levels in LNCaP or 22RV1 cells. It counts as cell-based. The conditions noted are these: LNCaP cells, 10 nM single dose (FIG. 8). Here is the method:
Specific exemplary bivalent compounds were characterized in LNCaP or 22RV1 cells. LNCaP or 22RV1 cells that express CBP/P300 proteins were treated with GNE-781 or the bivalent compounds disclosed herein (P-001 to P-174) for indicated hours. Cells were collected, lysed and subject to immunoblotting using an antibody specific to P300 or CBP proteins. Tubulin or vinculin was included as the loading control. DMSO was used as the negative control.
Cultured cells or tissue chunks were washed with cold PBS once and lysed in cold RIPA buffer supplemented with protease inhibitors and phosphatase inhibitors (Beyotime Biotechnology). The solutions were then incubated at 4° C. for 30 minutes with gentle agitation to fully lyse cells. Cell lysates were centrifuged at 13,000 rpm for 10 minutes at 4° C. and pellets were discarded. Total protein concentrations in the lysates were determined by BCA assays (Beyotime Biotechnology). Cell lysates were mixed with Laemmli loading buffer to 1× and heated at 99° C. for 5 min. Proteins were resolved on SDS-PAGE and visualized by chemiluminescence. Images were taken by a ChemiDoc MP Imaging system (Bio-Rad). Protein bands were quantitated using the accompanied software provided by Bio-Rad.
On the technique in general: A western blot detects proteins with antibodies after separation by electrophoresis.

The test system of the next assay is VCaP. Description: Cell viability assay, VCaP. It is filed as cell-based. The conditions noted are these: Homo sapiens, Prostate carcinoma. Here is the method: as §1, §2
A further assay deals with HEL. Description: Cell viability assay, HEL. It counts as cell-based. The conditions noted are these: Homo sapiens, Erythroleukemia. Here is the method:
as §1, §2

The next assay deals with P300 (Homo sapiens, UniProt Q09472). Description: Pharmacodynamic study, P300 in 22RV1 subcutaneous xenograft tumors. It counts as in vivo, Athymic nude mice. More on the design: from tissue; host or cells: 22RV1 subcutaneous xenograft tumours in athymic nude mice. The conditions noted are these: single dose 40 mg/kg, i.p. or p.o., six hours after administration (FIG. 9). On the procedure:
(§3) In addition to cultured cells, athymic nude mice bearing 22RV1 subcutaneous xenograft tumors at the right flank were intraperitoneally or orally treated with 40 mg/kg bivalent compounds. Six hours after drug administration, animals were sacrificed for immunoblotting of P300 and CBP in homogenized xenograft tumor masses. […] Moreover, ICR mice were orally treated with 40 mg/kg bivalent compounds. Six hours after drug administration, animals were sacrificed for immunoblotting of CBP in homogenized lung tissues.
(§4) Athymic nude mice bearing 22RV1 subcutaneous xenograft tumors at the right flank were intraperitoneally or orally treated with selected bivalent compounds at 40 mg/kg. Six hours after drug administration, animals were sacrificed, and xenograft tumors were collected for immunoblotting of P300 and CBP.
(§5) All animal experiments were performed under protocols approved by the Institutional Animal Care and Use Committee (IACUC) of Cullgen. Athymic nude mice (male, 5-weeks old) received 5 million 22RV1 cells subcutaneously inoculated at the right flank site. Twenty days following inoculation, tumors were approximately 500 mm^3 in size. Tumor-bearing mice were treated intraperitoneally or via oral gavage with vehicle or bivalent compounds at indicated doses. 6 hours after drug administration, animals were sacrificed, tumors were resected. Small chunks of tumors were homogenized for immunoblotting of P300/CBP and other proteins as indicated. Alternatively, ICR mice (male, 5-weeks old) were treated via oral gavage with vehicle or bivalent compounds at indicated doses. 6 hours after drug administration, animals were sacrificed, lung tissues were resected. Small chunks of lung tissues were homogenized for immunoblotting of CBP and other proteins as indicated.

The test system of another assay is MCF-7. Kind of assay: Cell viability assay, MCF-7. The conditions noted are these: Homo sapiens, MCF7, MCF-7, breast carcinoma. It is filed as cell-based. On the procedure:
as §1, §2

The next assay deals with RPMI-8226. Kind of assay: Cell viability assay, RPMI-8226. It is filed as cell-based. The conditions noted are these: Homo sapiens, RPMI-8226, Multiple myeloma. On the procedure: as §1, §2
Another assay deals with LNCaP cells. Description: LNCaP cell viability assay (CellTiter-Glo). The conditions noted are these: Homo sapiens. It counts as cell-based. A digest of the protocol: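 LNCaP cells, 5000/well, exposed to compounds in 12-point 3-fold serial dilution (top 10 μM) for 3 days. Viability by CellTiter-Glo luminescence, normalized to untreated cells; IC50 by least-squares nonlinear regression.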
(In ATP-based viability assays light output follows the ATP content of the culture.)

In the next assay the test system is Pfeiffer. Description: Cell viability assay, Pfeiffer. The conditions noted are these: Homo sapiens, Diffuse large B-cell lymphoma. It is filed as cell-based. On the procedure:
as §1, §2

In a further assay the test system is MM.1S. Description: Cell viability assay, MM.1S. The conditions noted are these: Homo sapiens, MM1.S, Multiple Myeloma. It counts as cell-based. On the procedure: as §1, §2
The test system of a further assay is NCI-H520. Description: Cell viability assay, NCI-H520. It counts as cell-based. The conditions noted are these: Homo sapiens, NCI-H520, Non-small cell lung cancer. On the procedure:
as §1, §2

The test system of another assay is SU-DHL-1. Description: Cell viability assay, SU-DHL-1. It is filed as cell-based. The conditions noted are these: Homo sapiens, SU-DHL-1, Diffuse large B-cell lymphoma. On the procedure: as §1, §2
In the next assay the test system is L-363. Description: Cell viability assay, L-363. It is filed as cell-based. The conditions noted are these: Homo sapiens, L-363, Multiple myeloma. On the procedure:
as §1, §2

The next assay addresses T1, CBP (Homo sapiens, UniProt Q92793).
T1 construct: from tissue; host or cells: 22RV1 subcutaneous xenograft tumours in athymic nude mice
Description: Pharmacodynamic study, CBP in 22RV1 subcutaneous xenograft tumors. It is filed as in vivo, Athymic nude mice. The conditions noted are these: single dose 40 mg/kg, i.p. or p.o., six hours after administration (FIG. 9). Here is the method: as §3, §4, §5

Setting [1] is: 72 h, LNCaP prostate cancer cell viability inhibition, 3 days, CellTiter-Glo (Table 2).
[2] abbreviates: cell viability, LNCaP clone FGC, Prostate carcinoma (Table 4).

Sequence of P300 (Q09472 whole entry): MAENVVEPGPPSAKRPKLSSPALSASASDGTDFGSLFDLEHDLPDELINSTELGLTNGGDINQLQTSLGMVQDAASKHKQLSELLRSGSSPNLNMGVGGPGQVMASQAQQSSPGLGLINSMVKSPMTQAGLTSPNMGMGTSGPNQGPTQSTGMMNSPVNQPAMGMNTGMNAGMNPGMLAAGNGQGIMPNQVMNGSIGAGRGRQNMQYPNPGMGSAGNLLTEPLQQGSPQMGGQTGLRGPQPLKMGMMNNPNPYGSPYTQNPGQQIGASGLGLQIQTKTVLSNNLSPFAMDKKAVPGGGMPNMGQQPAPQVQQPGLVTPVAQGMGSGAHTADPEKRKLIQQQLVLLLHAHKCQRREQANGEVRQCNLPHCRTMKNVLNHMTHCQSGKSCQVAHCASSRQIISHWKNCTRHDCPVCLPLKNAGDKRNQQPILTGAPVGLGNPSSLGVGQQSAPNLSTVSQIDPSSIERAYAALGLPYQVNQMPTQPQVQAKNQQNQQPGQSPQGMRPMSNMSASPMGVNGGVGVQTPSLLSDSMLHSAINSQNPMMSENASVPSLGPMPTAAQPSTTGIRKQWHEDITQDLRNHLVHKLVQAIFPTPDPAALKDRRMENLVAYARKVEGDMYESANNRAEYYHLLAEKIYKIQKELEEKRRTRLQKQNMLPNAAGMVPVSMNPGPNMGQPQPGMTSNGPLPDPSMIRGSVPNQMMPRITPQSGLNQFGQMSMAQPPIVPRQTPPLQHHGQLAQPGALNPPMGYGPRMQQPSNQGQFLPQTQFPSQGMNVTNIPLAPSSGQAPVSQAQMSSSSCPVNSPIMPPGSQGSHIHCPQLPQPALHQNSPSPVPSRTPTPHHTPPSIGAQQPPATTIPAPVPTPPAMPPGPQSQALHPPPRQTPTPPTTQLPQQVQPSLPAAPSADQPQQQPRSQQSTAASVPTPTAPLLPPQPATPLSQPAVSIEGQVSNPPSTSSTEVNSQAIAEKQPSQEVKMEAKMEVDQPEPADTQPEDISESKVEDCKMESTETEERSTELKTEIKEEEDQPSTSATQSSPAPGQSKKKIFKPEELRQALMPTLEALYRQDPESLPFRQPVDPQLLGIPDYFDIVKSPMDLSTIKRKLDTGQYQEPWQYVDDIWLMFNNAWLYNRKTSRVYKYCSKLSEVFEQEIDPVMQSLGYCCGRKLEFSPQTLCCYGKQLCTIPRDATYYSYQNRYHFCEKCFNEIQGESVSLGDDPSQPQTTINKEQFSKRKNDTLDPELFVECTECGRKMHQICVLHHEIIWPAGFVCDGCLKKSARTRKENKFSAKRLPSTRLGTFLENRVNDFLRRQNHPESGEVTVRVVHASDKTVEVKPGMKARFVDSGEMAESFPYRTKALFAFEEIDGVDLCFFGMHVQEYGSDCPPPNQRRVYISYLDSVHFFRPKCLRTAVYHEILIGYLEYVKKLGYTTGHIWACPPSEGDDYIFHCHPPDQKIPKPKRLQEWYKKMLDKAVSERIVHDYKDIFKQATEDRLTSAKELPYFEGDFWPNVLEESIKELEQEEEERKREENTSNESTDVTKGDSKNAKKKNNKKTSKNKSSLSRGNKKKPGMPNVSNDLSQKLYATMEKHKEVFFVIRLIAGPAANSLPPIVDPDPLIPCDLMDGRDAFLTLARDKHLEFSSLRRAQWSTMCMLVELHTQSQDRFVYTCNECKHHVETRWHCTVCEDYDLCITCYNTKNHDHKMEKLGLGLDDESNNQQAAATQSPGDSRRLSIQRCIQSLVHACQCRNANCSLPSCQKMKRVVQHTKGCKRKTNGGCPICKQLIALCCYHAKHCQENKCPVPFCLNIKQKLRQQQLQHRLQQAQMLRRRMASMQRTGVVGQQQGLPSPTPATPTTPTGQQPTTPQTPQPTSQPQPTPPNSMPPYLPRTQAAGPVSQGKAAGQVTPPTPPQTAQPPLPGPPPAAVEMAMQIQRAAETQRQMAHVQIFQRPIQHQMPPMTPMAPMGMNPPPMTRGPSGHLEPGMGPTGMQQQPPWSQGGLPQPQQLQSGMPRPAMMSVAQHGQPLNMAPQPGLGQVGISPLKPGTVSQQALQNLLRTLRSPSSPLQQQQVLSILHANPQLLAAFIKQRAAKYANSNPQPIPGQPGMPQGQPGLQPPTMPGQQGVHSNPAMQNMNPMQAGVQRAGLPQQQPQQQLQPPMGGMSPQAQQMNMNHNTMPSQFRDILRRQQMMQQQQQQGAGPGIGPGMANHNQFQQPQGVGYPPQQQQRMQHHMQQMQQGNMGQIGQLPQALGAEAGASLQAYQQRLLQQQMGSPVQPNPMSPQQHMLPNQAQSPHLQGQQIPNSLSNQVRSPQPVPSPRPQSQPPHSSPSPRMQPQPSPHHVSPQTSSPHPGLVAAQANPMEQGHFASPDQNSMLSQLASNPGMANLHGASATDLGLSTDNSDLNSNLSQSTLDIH
T1 sequence (Q92793 whole entry): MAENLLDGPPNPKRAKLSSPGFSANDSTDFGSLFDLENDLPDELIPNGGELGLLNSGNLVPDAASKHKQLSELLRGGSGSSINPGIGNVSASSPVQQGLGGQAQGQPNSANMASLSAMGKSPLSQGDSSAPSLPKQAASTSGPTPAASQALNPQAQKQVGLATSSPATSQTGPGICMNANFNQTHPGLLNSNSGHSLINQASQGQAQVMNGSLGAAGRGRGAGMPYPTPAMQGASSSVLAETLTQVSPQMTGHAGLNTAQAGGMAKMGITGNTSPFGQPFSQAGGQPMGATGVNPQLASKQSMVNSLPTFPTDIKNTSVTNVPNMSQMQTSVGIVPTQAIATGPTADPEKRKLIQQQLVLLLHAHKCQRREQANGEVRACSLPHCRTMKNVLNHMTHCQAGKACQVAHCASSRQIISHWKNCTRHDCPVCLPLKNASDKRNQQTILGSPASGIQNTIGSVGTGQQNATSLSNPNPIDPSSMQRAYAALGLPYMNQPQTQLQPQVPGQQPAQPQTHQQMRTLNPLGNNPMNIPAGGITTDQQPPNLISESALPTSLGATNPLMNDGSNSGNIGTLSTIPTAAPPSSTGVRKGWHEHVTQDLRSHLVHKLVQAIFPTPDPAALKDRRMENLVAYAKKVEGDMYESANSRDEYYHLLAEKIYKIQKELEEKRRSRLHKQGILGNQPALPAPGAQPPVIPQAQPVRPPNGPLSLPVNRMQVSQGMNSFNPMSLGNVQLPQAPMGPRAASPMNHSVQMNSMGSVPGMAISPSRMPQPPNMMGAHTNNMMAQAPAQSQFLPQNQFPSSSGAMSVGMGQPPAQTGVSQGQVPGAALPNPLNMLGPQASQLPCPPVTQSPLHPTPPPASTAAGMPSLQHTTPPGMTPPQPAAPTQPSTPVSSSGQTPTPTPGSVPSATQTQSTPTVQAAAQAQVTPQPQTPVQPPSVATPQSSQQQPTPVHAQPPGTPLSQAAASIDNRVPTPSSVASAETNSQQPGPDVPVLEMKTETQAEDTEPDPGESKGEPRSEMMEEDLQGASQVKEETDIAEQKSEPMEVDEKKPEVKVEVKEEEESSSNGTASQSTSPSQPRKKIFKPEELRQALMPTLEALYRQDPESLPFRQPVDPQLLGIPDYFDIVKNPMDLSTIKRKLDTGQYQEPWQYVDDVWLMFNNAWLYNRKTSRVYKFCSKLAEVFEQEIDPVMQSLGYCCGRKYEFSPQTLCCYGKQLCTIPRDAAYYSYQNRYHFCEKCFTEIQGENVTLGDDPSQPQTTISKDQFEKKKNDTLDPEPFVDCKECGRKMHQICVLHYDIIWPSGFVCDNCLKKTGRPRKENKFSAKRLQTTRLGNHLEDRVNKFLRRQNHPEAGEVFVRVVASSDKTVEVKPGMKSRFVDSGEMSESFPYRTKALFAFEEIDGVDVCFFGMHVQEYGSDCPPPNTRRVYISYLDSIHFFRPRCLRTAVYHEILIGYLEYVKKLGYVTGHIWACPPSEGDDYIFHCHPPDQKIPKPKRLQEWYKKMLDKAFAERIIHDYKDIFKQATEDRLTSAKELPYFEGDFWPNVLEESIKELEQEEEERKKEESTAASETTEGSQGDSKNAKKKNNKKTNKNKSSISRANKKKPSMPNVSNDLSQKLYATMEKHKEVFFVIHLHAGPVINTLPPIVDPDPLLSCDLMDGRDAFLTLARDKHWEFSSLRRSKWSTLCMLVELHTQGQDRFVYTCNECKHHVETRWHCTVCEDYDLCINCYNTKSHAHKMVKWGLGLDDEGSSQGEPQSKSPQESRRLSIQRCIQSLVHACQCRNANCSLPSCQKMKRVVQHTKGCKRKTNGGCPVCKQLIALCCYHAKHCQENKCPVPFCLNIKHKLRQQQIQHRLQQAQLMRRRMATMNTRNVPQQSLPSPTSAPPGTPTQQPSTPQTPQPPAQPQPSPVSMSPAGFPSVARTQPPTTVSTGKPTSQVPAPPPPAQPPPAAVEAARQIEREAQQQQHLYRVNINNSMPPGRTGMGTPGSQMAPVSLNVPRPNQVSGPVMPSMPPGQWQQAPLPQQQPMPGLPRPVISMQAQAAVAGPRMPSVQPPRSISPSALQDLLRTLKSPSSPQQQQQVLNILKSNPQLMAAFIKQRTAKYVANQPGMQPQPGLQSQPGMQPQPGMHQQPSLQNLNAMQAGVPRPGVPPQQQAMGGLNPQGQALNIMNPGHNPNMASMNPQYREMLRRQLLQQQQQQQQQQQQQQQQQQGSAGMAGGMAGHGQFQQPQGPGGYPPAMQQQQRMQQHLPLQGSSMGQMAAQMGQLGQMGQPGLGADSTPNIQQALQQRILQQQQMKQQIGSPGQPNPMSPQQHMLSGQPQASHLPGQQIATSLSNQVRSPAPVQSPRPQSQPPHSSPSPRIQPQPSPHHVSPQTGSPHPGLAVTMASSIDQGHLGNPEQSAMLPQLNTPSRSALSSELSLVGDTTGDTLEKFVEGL

On to `CNC(=O)N1CCc2c(c(N3CCCc4cc(-c5cnn(C)c5)c(C(F)F)cc43)nn2C2CCN(C(=O)CCCCCCCNc3ccc4c(c3)C(=O)N(C3CCC(=O)NC3=O)C4=O)CC2)C1` (centres unmarked) [P-007, 3-(7-(difluoromethyl)-6-(1-methyl-1H-pyrazol-4-yl)-3,4-dihydroquinolin-1(2H)-yl)-1-(1-(8-((2-(2,6-dioxopiperidin-3-yl)-1,3-dioxoisoindolin-5-yl)amino)octanoyl)piperidin-4-yl)-N-methyl-1,4,6,7-tetrahydro-5H-pyrazolo[4,3-c]pyridine-5-carboxamide], for which the IC50 (usually the midpoint of a concentration-inhibition curve) is 5.5 nM in the assay on SK-BR-3; 0.4 nM with WSU-DLCL2; 8.9 nM in the assay on MV4; 11; 0.3 nM in the assay on MM.1R; 17 nM in the assay on HL-60; 2.1 nM in the assay on VCaP. Moreover, the IC50 in the assay on HEL worked out at 16.1 nM; in the assay on MCF-7 it was 2.2 nM; in the assay with RPMI-8226, 3.7 nM; with LNCaP cells (setting [1]) it was 1.2 nM; with LNCaP cells (setting [2]), 1.3 nM; in the assay with Pfeiffer, 2.1 nM. The IC50 amounted to 0.7 nM in the assay on MM.1S, 2.8 nM in the assay on NCI-H520, 3.4 nM with SU-DHL-1 and 3 nM in the assay on L-363. Also, in the assay on P300/CBP, the “degradation of P300/CBP in combination with pomalidomide, MG-132, Bortezomib or MLN4924” value is reported as “compromised; also recorded: neutralized”. The “P300 protein levels in 22RV1 xenograft tumors” value on P300 is recorded as “significantly reducing”. Also, at CBP, the “CBP protein levels in 22RV1 xenograft tumors” value is given as “significantly reducing”.

On to `CNC(=O)N1CCc2c(c(N3CCCc4cc(-c5cnn(C)c5)c(C(F)F)cc43)nn2C2CCN(C(=O)CCCCCNc3cccc4c3C(=O)N(C3CCC(=O)NC3=O)C4=O)CC2)C1` (centres unmarked) [P-034, 3-(7-(difluoromethyl)-6-(1-methyl-1H-pyrazol-4-yl)-3,4-dihydroquinolin-1(2H)-yl)-1-(1-(6-((2-(2,6-dioxopiperidin-3-yl)-1,3-dioxoisoindolin-4-yl)amino)hexanoyl)piperidin-4-yl)-N-methyl-1,4,6,7-tetrahydro-5H-pyrazolo[4,3-c]pyridine-5-carboxamide], for which the IC50 was 10.1 nM in the assay on SK-BR-3; 0.4 nM in the assay on WSU-DLCL2; greater than 10000 nM in the assay with MV4; 11; 0.1 nM in the assay on MM.1R; 2.9 nM in the assay on HL-60; 3.6 nM with VCaP. Besides, the half-maximal inhibitory concentration (IC50) is 37.8 nM in the assay with HEL; 65.4 nM in the assay on MCF-7; 9.4 nM in the assay on RPMI-8226; 0.4 nM in the assay with LNCaP cells (setting [1]); 0.6 nM in the assay with LNCaP cells (setting [2]); 0.7 nM with Pfeiffer. In addition, the IC50 was 0.2 nM in the assay with MM.1S, 2 nM in the assay on NCI-H520, 0.8 nM in the assay on SU-DHL-1 and 0.4 nM in the assay with L-363. The “degradation of P300/CBP in combination with pomalidomide, MG-132, Bortezomib or MLN4924” value in the assay with P300/CBP was “compromised; also recorded: neutralized”. For the same molecule, the “P300 protein levels in 22RV1 xenograft tumors” value on P300 is reported as “significantly reducing”. Moreover, the “CBP protein levels in 22RV1 xenograft tumors” value at CBP is reported as “significantly reducing”.
